Laboratory results taken from PubChem BioAssay AID330 (DTP/NCI, 2004).
Values joined by “and” are separate entries in the source; they are usually repeats but may differ in a detail not shown here. Identical values can stand only once. Toxic doses and inconclusive results are not listed.

Tested on: P388 leukemia ip, CD2F1 mice, survival T/C
Assay: NCI In Vivo Anticancer Drug Screen. Data for tumor model P388 Leukemia (intraperitoneal) in CD2F1 (CDF1) mice
Conditions: endpoint: median survival time, higher = longer survival
Procedure, shortened: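 Mice carrying the transplanted tumor received test compound or vehicle. Survival was recorded in each group, and the value is the treated-group measurement divided by that of the vehicle-treated control group.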

With `CC1CN1CC(O)C(O)CN1CC1C` (configuration not stated) the T/C (dose: 0.01 mg/kg/injection, schedule: Q04DX003 (ip), vehicle: saline) was 109 % of control, the T/C (dose: 0.02 mg/kg/injection, schedule: Q04DX003 (ip), vehicle: saline) was 104 % of control and the T/C (dose: 0.15 mg/kg/injection, schedule: Q04DX003 (ip), vehicle: saline) was 160 % of control. The T/C (dose: 0.3 mg/kg/injection, schedule: Q04DX003 (ip), vehicle: saline) was 170 % of control, the T/C (dose: 0.5 mg/kg/injection, schedule: Q04DX003 (ip), vehicle: saline) was 160 % of control and the T/C (dose: 0.6 mg/kg/injection, schedule: Q04DX003 (ip), vehicle: saline) was 170 % of control. The T/C (dose: 0.62 mg/kg/injection, schedule: Q04DX003 (ip), vehicle: saline) was 154 % of control, the T/C (dose: 1.0 mg/kg/injection, schedule: Q04DX003 (ip), vehicle: saline) was 185 % of control and the T/C (dose: 1.25 mg/kg/injection, schedule: Q01DX009 (ip), vehicle: saline with Tween-80) was 272 % of control. For the same compound, the T/C (dose: 1.25 mg/kg/injection, schedule: Q04DX003 (ip), vehicle: saline) was 163 % of control, the T/C (dose: 2.0 mg/kg/injection, schedule: Q04DX003 (ip), vehicle: saline) was 240 % of control and the T/C (dose: 2.5 mg/kg/injection, schedule: Q01DX009 (ip), vehicle: saline with Tween-80) was 95 % of control. For the same compound, the T/C (dose: 2.5 mg/kg/injection, schedule: Q01DX009 (ip), vehicle: saline) was 222 % of control, the T/C (dose: 2.5 mg/kg/injection, schedule: Q04DX003 (ip), vehicle: saline) was 222 % of control and the T/C (dose: 3.0 mg/kg/injection, schedule: Q04DX003 (ip), vehicle: saline) was 172 % of control. For the same compound, the T/C (dose: 3.3 mg/kg/injection, schedule: Q04DX003 (ip), vehicle: saline) was 212 % of control, the T/C (dose: 5.0 mg/kg/injection, schedule: Q01DX009 (ip), vehicle: saline) was 122 % of control and the T/C (dose: 5.0 mg/kg/injection, schedule: Q04DX003 (ip), vehicle: saline) was 231 % of control and 183 % of control and 230 % of control. The T/C (dose: 6.0 mg/kg/injection, schedule: Q04DX003 (ip), vehicle: saline) was 268 % of control, the T/C (dose: 7.5 mg/kg/injection, schedule: Q04DX003 (ip), vehicle: saline) was 272 % of control and the T/C (dose: 10.0 mg/kg/injection, schedule: Q04DX003 (ip), vehicle: saline) was 268 % of control. The T/C (dose: 63.0 micrograms/kg/injection, schedule: Q04DX003 (ip), vehicle: saline) was 100 % of control, the T/C (dose: 125.0 micrograms/kg/injection, schedule: Q04DX003 (ip), vehicle: saline) was 100 % of control and the T/C (dose: 250.0 micrograms/kg/injection, schedule: Q04DX003 (ip), vehicle: saline) was 104 % of control.

For `Cc1noc2c1N=C(c1ccccc1)CC(c1ccccc1)C2` (configuration not stated), the T/C (dose: 25.0 mg/kg/injection, schedule: Q01DX009 (ip), vehicle: Klucel (hydroxypropylcellulose) (HPC)) was 104 % of control, the T/C (dose: 50.0 mg/kg/injection, schedule: Q01DX009 (ip), vehicle: Klucel (hydroxypropylcellulose) (HPC)) was 104 % of control and 111 % of control and the T/C (dose: 100.0 mg/kg/injection, schedule: Q01DX009 (ip), vehicle: Klucel (hydroxypropylcellulose) (HPC)) was 109 % of control. For the same compound, the T/C (dose: 200.0 mg/kg/injection, schedule: Q01DX009 (ip), vehicle: Klucel (hydroxypropylcellulose) (HPC)) was 109 % of control.

`Cc1cccc(Nc2nnc(Nc3cccc(C)n3)c3ccccc23)n1` was tested, and the T/C (dose: 50.0 mg/kg/injection, schedule: Q01DX005 (ip), vehicle: saline with Tween-80) was 95 % of control, the T/C (dose: 100.0 mg/kg/injection, schedule: Q01DX005 (ip), vehicle: saline with Tween-80) was 91 % of control and the T/C (dose: 200.0 mg/kg/injection, schedule: Q01DX005 (ip), vehicle: saline with Tween-80) was 92 % of control.

In the case of `Nc1nc(N)c2nc(C(=O)c3ccccc3)c(-c3ccccc3)nc2n1`, the T/C (dose: 50.0 mg/kg/injection, schedule: Q01DX009 (ip), vehicle: saline with Tween-80) is reported as 92 % of control, the T/C (dose: 100.0 mg/kg/injection, schedule: Q01DX009 (ip), vehicle: saline with Tween-80) is reported as 97 % of control and the T/C (dose: 200.0 mg/kg/injection, schedule: Q01DX009 (ip), vehicle: saline with Tween-80) is reported as 90 % of control.

`OCCN1C(c2ccccc2)=CN2C=CSC21` (configuration not stated) was tested, and the T/C (dose: 100.0 mg/kg/injection, schedule: Q04DX002 (ip), vehicle: saline with Tween-80) was 97 % of control, the T/C (dose: 200.0 mg/kg/injection, schedule: Q04DX002 (ip), vehicle: saline with Tween-80) was 94 % of control and the T/C (dose: 400.0 mg/kg/injection, schedule: Q04DX002 (ip), vehicle: saline with Tween-80) was 97 % of control.
